Measured values: publication PMC10786919, “Design-rules for stapled peptides with in vivo activity and their application to Mdm2/X antagonists” (Nature Communications, 2024)
≈ marks a conversion by molar mass, not a printed value. Read-outs that look alike come from different tables or passages of the source. Positions of bridges follow the written chain, without caps; N, C: chain ends. Non-standard residues stand in square brackets, D forms with d. Residues, ends and D or L forms follow the SMILES beside them. R8 = C=CCCCCCC[C@@](C)(N)C(=O)O; S5 = C=CCCC[C@](C)(N)C(=O)O

Key:
[1] = Circular dichroism (CD) helicity; type: physicochemical
Experimental: A total of 5 µL of the 10 mM stock peptide was mixed with 45 µL of 100% methanol, and dried for 2 h in the SpeedVac concentrator (Thermo Scientific). The dried peptide was reconstituted in a buffer (1 mM Hepes pH 7.4 and 5% methanol) to a concentration of 1 mM. The peptide sample was placed in a quartz cuvette with a path length of 0.2 cm. The peptide concentration was determined by the absorbance of the peptide at […]. The CD spectrum was recorded from 300 to 190 nm using the Chirascan-plus qCD machine (Applied Photophysics, Surrey, UK), at 25 °C. All experiments were done in duplicates. The CD spectrum was converted to mean residue ellipticity before deconvolution and estimation of the secondary structure components of the peptide using the CDNN software (distributed by Applied Photophysics). Measurements were taken at least twice and were reported as arithmetic means.

[2] = tested on: p53 responsive β-lactamase reporter in HCT116 cells; experiment: cells; type: cell-based
How it was run: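 HCT116 cells stably carrying a p53-responsive β-lactamase reporter, seeded at 8000 cells/well, with 0.5% DMSO final. Reporter activity read by ToxBLAzer Dual Screen. Values are geometric means of at least three biological replicates.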

[3] = Experimental LogD (partition coefficient); conditions: for logD: not stated, Partition Coeff LogD
[4] = tested on: HCT116 cells; experiment: Lactate dehydrogenase (LDH) release assay; type: cell-based
How it was run: (§1)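 Read-out was lactate dehydrogenase release, reflecting loss of membrane integrity, in reporter-engineered HCT116 cells (p53-responsive β-lactamase) seeded at 8000 cells per well. Final DMSO was 0.5%, and reported values are geometric means from three or more biological repeats.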

[5] = Lactate dehydrogenase (LDH) release assay; type: cell-based
How it was run: as §1

[6] = physchem
[7] = Solubility assay (kinetic solubility, PBS pH 7); type: physicochemical; conditions: for solubility kinetic: pH 7, aqueous buffer, kinetic from dmso stock, read-out: Solubility
How it was run: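 Next, measure peak areas of sample and standard. Finally, multiply their ratio by the standard concentration to obtain solubility (µM).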

[8] = tested on: Jump-In T-REx CHO-K1 BLA cells; experiment: cells; type: cell-based; conditions: for TETCHO Counterscreen % Effect: efficacy at 50 μM relative to tetracycline control
[9] = target: T1, human Mdm2 1–125 (Homo sapiens, UniProt Q00987); experiment: Mdm2 binding by competitive fluorescence anisotropy assay (FP binding); conditions: read-out: FP binding assay KD
T1 construct: GST (N); His6 (internal); TEV cleavage site (ENLYFQG) (internal); made in house; host or cells: BL21 (DE3) Rosetta T1R Escherichia coli
T1 sequence (Q00987 with tags, fused parts or gaps): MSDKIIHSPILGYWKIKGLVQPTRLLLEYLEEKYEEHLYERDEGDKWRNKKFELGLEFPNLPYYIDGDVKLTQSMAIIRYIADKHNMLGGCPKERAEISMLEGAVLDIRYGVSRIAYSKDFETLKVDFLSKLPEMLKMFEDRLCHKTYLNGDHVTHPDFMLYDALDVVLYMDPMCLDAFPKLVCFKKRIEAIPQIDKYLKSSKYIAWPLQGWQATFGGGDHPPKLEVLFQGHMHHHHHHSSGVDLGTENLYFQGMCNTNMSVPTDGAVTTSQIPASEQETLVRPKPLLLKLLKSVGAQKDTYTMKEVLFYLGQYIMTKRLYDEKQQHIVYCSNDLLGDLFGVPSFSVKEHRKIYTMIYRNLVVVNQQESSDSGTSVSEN

[10] = tested on: cells transiently transfected with the NanoLuc-HaloTag vector; experiment: Nanoclick permeability assay; conditions: 4Hr
How it was run: (§2)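 Azido-peptide permeability was read as loss of NanoBRET signal (donor 450 nm, acceptor 610 nm) after adding NanoBret618-azide at 10 μM final.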

[11] = Nanoclick permeability assay
How it was run: as §2

[12] = tested on: CellSensor p53RE-bla HCT-116 Cell Line; conditions: read-out: Cell Proliferation assay EC50; p53 WT, HCT116
How it was run: (§3)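 Compound dilution series (10 points, 3-fold, 10 mM top stock in DMSO) tested on overnight-plated Ca Ski cells in RPMI1640/10% FBS and on blasticidin-selected p53RE-bla HCT-116 cells in McCoy's 5A; read-out was CellTiter-Glo 2.0 luminescence after room-temperature equilibration.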

[13] = tested on: Ca Ski cell line; conditions: read-out: Cell Proliferation assay EC50; p53 Mut, Ca-Ski
How it was run: as §3

[14] = 0% FBS 4Hr, read-out: p53 reporter assay: EC50
[15] = 0% FBS 4Hr, read-out: TETCHO: Counterscreen EC50
[16] = read-out: Cell EC50 (4 hr, 0% FBS), p53 reporter assay, 4 hr, 0% FBS
[17] = read-out: Cell EC50 (16 hr, 10% FBS), p53 reporter assay, 16 hr, 10% FBS
[18] = 0% FBS 4Hr, read-out: LDH: Cytotoxicity assay: EC50
[19] = 10% FBS 16Hr, read-out: TETCHO: Counterscreen EC50
[20] = 0% FBS 16Hr, read-out: p53 reporter assay: EC50
[21] = 4 hours, 0% serum, read-out: TETCHO Counterscreen EC50

Compound	CD % Helicity [1] [%]	EC50 [2, 14] [µM]	logD [3]	LDH: Cytotoxicity assay: % Effect [4] [%]	EC50 ([5]; LDH: Cytotoxicity assay: EC50) [µM]	EPSA [6] [A^2]	solubility kinetic ([7]; pH 7, PBS) [µM]	TETCHO: Counterscreen % Effect ([8]; 0% FBS 4Hr) [%]	EC50 [8, 15] [µM]	TETCHO: Counterscreen % Effect ([8]; 0% FBS 16Hr) [%]	Kd [9] [µM]	EC50 [2, 16] [µM]	EC50 [2, 17] [µM]	LDH: Cytotoxicity assay: % Effect ([4]; 0% FBS 4Hr) [%]	EC50 [5, 18] [µM]	TETCHO: Counterscreen % Effect ([8]; 10% FBS 16Hr) [%]	EC50 [8, 19] [µM]	EC50 [2, 20] [µM]	TETCHO Counterscreen % Effect ([8]; 4 hours, 0% serum) [%]	EC50 [8, 21] [µM]	other results
CC(=O)N[C@H](C(=O)N[C@@H](CO)C(=O)NC(C)(Cc1ccccc1)C(=O)N[C@]1(C)CCCCCCC=CCCC[C@@](C)(C(N)=O)NC(=O)[C@H](CC(C)C)NC(=O)[C@H](CC(C)C)NC(=O)[C@H](C)NC(=O)[C@H](Cc2c[nH]c3ccccc23)NC(=O)[C@H](Cc2ccc(O)cc2)NC(=O)[C@H](CCC(=O)O)NC1=O)[C@@H](C)O (stereo partly shown) [MP-159]	40.4	37.4	2.75	47.15	21.6	210	85.5 (≈ 126 µg/mL)	165.5	30.1	55.93	0.52										
CC(=O)N[C@@H](CCCCN=[N+]=[N-])C(=O)NCCC(=O)N[C@@H](CC(C)C)C(=O)N[C@H](C(=O)N[C@@H](Cc1ccccc1)C(=O)N[C@]1(C)CCCCCCn2cc(nn2)CCC[C@@](C)(C(=O)N[C@@H](CO)C(=O)N[C@@H](C)C(=O)N[C@@H](C)C(N)=O)NC(=O)[C@H](CC2CCC2)NC(=O)[C@H](CCC(N)=O)NC(=O)[C@H](C)NC(=O)[C@H](Cc2c[nH]c3ccccc23)NC(=O)[C@H](Cc2ccc(O)cc2)NC(=O)[C@H](CCC(=O)O)NC1=O)[C@@H](C)O [MP-707]	33.95	1.6						-1.105	> 50.4			1.6	13.6	-2.492	> 50.7	-2.89	> 50.4				p53 reporter assay: % Effect ([2]; 0% FBS 4Hr): 101.9%; p53 reporter assay: % Effect ([2]; 10% FBS 16Hr): 63.44%; EC50 ([2]; 10% FBS 16Hr, read-out: p53 reporter assay: EC50): 13.6 µM; LDH: Cytotoxicity assay: % Effect ([4]; 10% FBS 16Hr): 13.49%; EC50 ([5]; 10% FBS 16Hr, read-out: LDH: Cytotoxicity assay: EC50): > 50.7 µM
CC(=O)N[C@@H](CC(C)C)C(=O)N[C@H](C(=O)N[C@@H](Cc1ccccc1)C(=O)N[C@]1(C)CCCCCCC=CCCC[C@@](C)(C(=O)N[C@@H](CO)C(=O)N[C@@H](C)C(=O)N[C@@H](C)C(N)=O)NC(=O)[C@H](CC2CCC2)NC(=O)[C@H](Cc2c[nH]cn2)NC(=O)[C@H](C)NC(=O)[C@H](Cc2c[nH]c3ccccc23)NC(=O)[C@H](Cc2ccc(O)cc2)NC(=O)[C@H](CCC(=O)O)NC1=O)[C@@H](C)O [MP-501, ATSP-7041 (Q8H)]	29.1	2.5						216	18.9					4.045	> 50			28.6	216	18.9	
CC(=O)N[C@@H](CC(C)C)C(=O)N[C@H](C(=O)N[C@@H](Cc1ccccc1)C(=O)N[C@]1(C)CCCCCCC=CCCC[C@@](C)(C(=O)N[C@@H](C)C(=O)N[C@@H](C)C(=O)N[C@@H](C)C(=O)N[C@@H](C)C(=O)N[C@@H](C)C(=O)N[C@H](C)C(N)=O)NC(=O)[C@H](CC(C)C)NC(=O)[C@H](CCC(N)=O)NC(=O)[C@H](C)NC(=O)[C@H](Cc2c[nH]c3ccccc23)NC(=O)[C@H](Cc2ccc(O)cc2)NC(=O)[C@H](CCC(=O)O)NC1=O)[C@@H](C)O [ALRN-6924, Ac-LTF(R8)EYWAQL(S5)AAAAA(dA)-NH2, reference compound] (Ac-LTF[R8]EYWAQL[S5]AAAAA[dA]-NH2; staple 4-11)	51.25							4.454	> 50.4			0.14	0.32			-11.62	> 50.4				Aqueous solution helicity ([1]; circular dichroism): 51.25%; p53 reporter assay % Effect ([2]; 0% FBS 4Hr): 95.6%; EC50 ([2]; 0% FBS 4Hr, read-out: p53 reporter assay EC50): 0.141 µM; p53 reporter assay % Effect ([2]; 10% FBS 16Hr): 77.82%; EC50 ([2]; 10% FBS 16Hr, read-out: p53 reporter assay EC50): 0.323 µM; Nanoclick permeability assay % Effect [10]: 33.65%; cell entry EC50 [11]: > 10 µM; Partition Coeff LogD [3]: Poorly Behaved; LDH: Cytotoxicity assay % Effect ([4]; 0% FBS 4Hr): 0.8526%; LDH: Cytotoxicity assay % Effect ([4]; 10% FBS 16Hr): 8.856%; EC50 ([5]; 0% FBS 4Hr, read-out: LDH: Cytotoxicity assay EC50): > 50.7 µM; EC50 ([5]; 10% FBS 16Hr, read-out: LDH: Cytotoxicity assay EC50): > 50.7 µM; Solubility [7]: P.B.; Solubility ([7]; pH 7, PBS): Poorly Behaved
CC(=O)N[C@H](C(=O)N[C@@H](CO)C(=O)NC(C)(Cc1ccccc1)C(=O)N[C@@H]1CCCCCCC=CCCC[C@@H](C(N)=O)NC(=O)C(C)(CC(C)C)NC(=O)[C@H](CC(C)C)NC(=O)[C@H](C)NC(=O)[C@H](Cc2c[nH]c3ccccc23)NC(=O)[C@H](Cc2ccc(O)cc2)NC(=O)[C@H](CCC(=O)O)NC1=O)[C@@H](C)O (stereo partly shown) [MP-792]	25.3	12.2		10.77	> 50			20.04	48.9	-1.02	0.199										
CC(=O)N[C@@H](CCCCN=[N+]=[N-])C(=O)NCCC(=O)N[C@@H](CC(C)C)C(=O)N[C@H](C(=O)N[C@@H](Cc1ccccc1)C(=O)N[C@]1(C)CCCCCCC=CCCC[C@@](C)(C(=O)N[C@@H](CO)C(=O)N[C@@H](C)C(=O)N[C@@H](C)C(N)=O)NC(=O)[C@H](CC2CCC2)NC(=O)[C@H](CCC(N)=O)NC(=O)[C@H](Cc2c[nH]cn2)NC(=O)[C@H](Cc2c[nH]c3ccccc23)NC(=O)[C@H](Cc2ccc(O)cc2)NC(=O)[C@H](CCC(=O)O)NC1=O)[C@@H](C)O [MP-496, AZIDE-ATSP-7041 (A8H)]	32.75	1.61	2.63			214	20 (≈ 40.7 µg/mL)	34.53	2.83					33.4	> 50.6			1.67	34.53	2.8	EC50 [12]: 1.54 µM; EC50 [13]: > 49.8 µM; off-target effects (LDH release and/or counterscreen activity) ([8]; Supplementary Table 1, 0% serum, 4 hours): none
